Results published in US11897898B2, “Pyridine macrocycle compounds as ASK1 inhibiting agents” (BIOGEN MA INC., priority 2018, dated 2024).

How the values were obtained:
[1] = molecular target: T1, ASK1 T838 auto phosphorylation (Homo sapiens, UniProt Q99683); assay: ASK1 (AUTO PHOS T838) assay in HEK-293T cells, MSD format; format: cell-based; settings: HEK-293T cells transfected with ASK1-V5, 1 hr compound incubation; class symbols
T1 construct: ASK1-V5 tagged full length plasmid; expressed in transfected cells; host or cells: HEK-293T
T1 sequence (Q99683 1-1374): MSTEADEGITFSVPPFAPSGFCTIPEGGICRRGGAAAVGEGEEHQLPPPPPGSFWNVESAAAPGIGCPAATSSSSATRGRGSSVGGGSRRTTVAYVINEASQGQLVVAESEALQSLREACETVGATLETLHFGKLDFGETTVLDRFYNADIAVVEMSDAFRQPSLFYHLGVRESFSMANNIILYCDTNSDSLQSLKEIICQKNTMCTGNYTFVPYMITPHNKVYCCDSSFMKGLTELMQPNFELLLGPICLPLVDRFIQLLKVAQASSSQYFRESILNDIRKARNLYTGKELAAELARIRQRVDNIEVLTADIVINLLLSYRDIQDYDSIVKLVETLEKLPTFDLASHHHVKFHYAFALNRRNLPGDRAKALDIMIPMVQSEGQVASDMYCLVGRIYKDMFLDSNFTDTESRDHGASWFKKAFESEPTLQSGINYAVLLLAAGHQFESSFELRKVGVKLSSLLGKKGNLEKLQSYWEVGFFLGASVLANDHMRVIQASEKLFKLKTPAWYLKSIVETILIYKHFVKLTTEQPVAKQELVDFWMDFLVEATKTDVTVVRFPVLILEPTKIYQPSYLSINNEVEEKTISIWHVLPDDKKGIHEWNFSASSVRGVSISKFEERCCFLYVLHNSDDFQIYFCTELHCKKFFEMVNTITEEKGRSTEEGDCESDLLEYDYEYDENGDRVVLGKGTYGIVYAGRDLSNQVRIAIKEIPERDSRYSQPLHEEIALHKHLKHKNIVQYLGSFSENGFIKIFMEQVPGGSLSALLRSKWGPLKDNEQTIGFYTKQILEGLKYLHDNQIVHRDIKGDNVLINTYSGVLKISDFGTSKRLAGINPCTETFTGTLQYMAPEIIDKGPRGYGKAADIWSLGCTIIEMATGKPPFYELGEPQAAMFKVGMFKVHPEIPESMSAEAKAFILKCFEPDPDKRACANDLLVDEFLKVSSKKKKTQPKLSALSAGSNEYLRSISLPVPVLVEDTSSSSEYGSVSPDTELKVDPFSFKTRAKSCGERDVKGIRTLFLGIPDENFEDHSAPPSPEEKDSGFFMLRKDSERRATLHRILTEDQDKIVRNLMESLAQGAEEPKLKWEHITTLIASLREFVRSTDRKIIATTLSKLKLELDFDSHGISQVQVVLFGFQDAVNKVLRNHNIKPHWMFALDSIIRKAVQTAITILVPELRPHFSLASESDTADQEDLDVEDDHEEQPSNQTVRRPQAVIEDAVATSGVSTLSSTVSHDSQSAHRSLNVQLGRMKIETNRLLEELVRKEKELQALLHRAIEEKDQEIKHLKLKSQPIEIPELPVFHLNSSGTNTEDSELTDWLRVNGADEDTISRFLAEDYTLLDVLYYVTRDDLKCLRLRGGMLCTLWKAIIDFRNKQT
In short: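 HEK-293T cells transiently expressing full-length V5-tagged ASK1, treated 1 h at 37 °C with compound (top 20 µM, 3-fold, 10 points). Lysates captured on anti-V5 and probed with anti-pASK1 T838 in MSD electrochemiluminescence format. IC50 from 4-parameter fit of normalized % activity.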

ASK1/MAP3K5 = molecular target: T2, ASK1/MAP3K5 (Homo sapiens, UniProt Q99683); assay: ASK1 enzyme assay (ASK1/MAP3K5 assay by Reaction Biology Corp., 33P-ATP filter-binding); format: biochemical; settings: 20 μM myelin basic protein and 10 μM ATP; class symbols
T2 construct: purchased Reaction Biology Corp. (Malvern, Pa.)
T2 sequence (Q99683 1-1374): T1 sequence (Q99683 1-1374)
In short: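 Human ASK1/MAP3K5 in pH 7.5 Hepes buffer with 20 μM myelin basic protein and 10 μM 33P-ATP; compounds preincubated with kinase 20 min at room temperature. Reaction ran 2 h at room temperature; substrate phosphorylation measured by P81 filter binding.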

IC50 [1]	IC50 (ASK1/MAP3K5)	Compound
≤ 100 nM	≤ 100 nM	C[C@H]1CCCOc2ncc(Br)cc2C(=O)Nc2cccc(n2)-c2nncn21 (single isomer, unassigned) [Compound 1]
100 to 1000 nM	≤ 100 nM	C[C@H]1CCCOc2ncccc2C(=O)Nc2cccc(n2)-c2nncn21 (single isomer, unassigned) [Compound 4]
100 to 1000 nM	≤ 100 nM	C[C@H]1CCCOc2ncc(C(F)(F)F)cc2C(=O)Nc2cccc(n2)-c2nncn21 (single isomer, unassigned) [Compound 41]
≤ 100 nM	≤ 100 nM	C[C@H]1CCCOc2ncc(-c3ccncc3)cc2C(=O)Nc2cccc(n2)-c2nncn21 [Compound 17, (S)-10-Methyl-5^5-(pyridin-4-yl)-1^4H-6-oxa-3-aza-2(2,6),5(3,2)-dipyridina-1(3,4)-triazolacyclodecaphan-4-one]
100 to 1000 nM	≤ 100 nM	C[C@H]1CCCOc2ncc(C#N)cc2C(=O)Nc2cccc(n2)-c2nncn21 [Compound 38, (S)-10-Methyl-4-oxo-1^4H-6-oxa-3-aza-2(2,6),5(3,2)-dipyridina-1(3,4)-triazolacyclodecaphane-5^5-carbonitrile]
